According to patent EP3818977A1, “CD93 INHIBITORS FOR USE IN THE TREATMENT OF CANCER” (Universität Bern, priority 2019, dated 2021):

Assays:
murine LSCs = experiment: Colony assay of murine LSCs in methylcellulose; format: cell-based, mouse
Experimental: Colony assays from BM lin^- cells of CML and naive mice and CD34^+ stem/progenitor cells of human CML patients were performed as described before ([…] et al. 2015). For mouse colony assays 10^3 FACS-purified LSKs or LSCs were plated in methylcellulose and colonies were enumerated 7 days later. For serial re-plating experiments, 10^4 cells were collected from preceding colony assays and re-plated in methylcellulose. Colonies were enumerated 7 days later. For experiments using metoclopramide (Sigma), 10^3 FACS-purified murine LSCs or 2x10^3 human CD34^+ […] methylcellulose. Colony were enumerated 7 days and 14 days later, respectively. For re-plating assays 10^4or 2x10^4 cells isolated from primary mouse and human colony assays, respectively, were subsequently replated in methylcellulose in the absence of any compound. Colony were enumerated 7 days and 14 days later, respectively.

human CD34^+CD38^- LSCs = experiment: Colony and re-plating assay of human CML stem/progenitor cells in semisolid culture; format: cell-based; conditions: 0.1µM, semisolid cultures, compared to control treatment
Experimental: Colony assays from BM lin^- cells of CML and naive mice and CD34^+ stem/progenitor cells of human CML patients were performed as described before (Riether et al. 2015).
For experiments using metoclopramide (Sigma), 10^3 FACS-purified murine LSCs or 2x10^3 human CD34^+ stem/progenitor cells were incubated overnight in 96 well V-bottom plates in the presence of 0.1 and 1µM metoclopramide or vehicle followed by plating methylcellulose. Colony were enumerated 7 days and 14 days later, respectively.
For re-plating assays 10^4or 2x10^4 cells isolated from primary mouse and human colony assays, respectively, were subsequently replated in methylcellulose in the absence of any compound. Colony were enumerated 7 days and 14 days later, respectively.

Structure (SMILES)	colony formation of murine LSCs (murine LSCs)	clonogenic potential of CD93-competent LSCs (murine LSCs; in vitro, BL/6 LSCs cultured overnight with 1mM metoclopramide (Fig. 6H), colonies assessed 7 days later)	colony formation of CD93-deficient LSCs (murine LSCs; in vitro, Cd93^-/- LSCs cultured overnight with 1mM metoclopramide (Fig. 6H), colonies assessed 7 days later)	colony formation (human CD34^+CD38^- LSCs)	re-plating capacity (human CD34^+CD38^- LSCs; re-plating in the absence of compound)
CC(CN1c2ccccc2Sc2ccccc21)N(C)C (stereo not drawn) [promethazine, Promethazine]	effective in reducing colony formation of murine LSCs	–	–	–	–
CCN(CC)CCNC(=O)c1cc(Cl)c(N)cc1OC [metoclopramide, Metoclopramide]	effective in reducing colony formation of murine LSCs	reduced clonogenic potential of CD93-competent LSCs to comparable levels as CD93-deficient LSCs	without further affecting colony formation of CD93-deficient LSCs	significantly impaired	significantly impaired
